Test results: publication PMC9851200, “Multiparameter phenotypic screening for endogenous TFEB and TFE3 translocation identifies novel chemical series modulating lysosome function” (Autophagy, 2022)

How the values were obtained:
[1] = system: endogenous TFEB; assay: TFEB nuclear translocation, immunocytochemistry high-content imaging; type: cell-based; details: PKIS2 primary screening
[2] = system: endogenous TFE3; assay: TFE3 nuclear translocation, immunocytochemistry high-content imaging; type: cell-based; details: for TFE3 %: PKIS2 primary screening; for nTFE3 %: primary screen, 1 µM, 24 h, SH-SY5Y
[3] = system: SH-SY5Y cells; details: PKIS2 primary screening; for DQ Intensity: DQ Red BSA intensity; for DQ Spot: DQ Red BSA spot count; as to all read-outs here: reference of the scale not given here
[4] = target: T1, PRKD2 (Homo sapiens, UniProt Q9BZL6); details: cited from earlier work
T1 sequence (Q9BZL6 1-878): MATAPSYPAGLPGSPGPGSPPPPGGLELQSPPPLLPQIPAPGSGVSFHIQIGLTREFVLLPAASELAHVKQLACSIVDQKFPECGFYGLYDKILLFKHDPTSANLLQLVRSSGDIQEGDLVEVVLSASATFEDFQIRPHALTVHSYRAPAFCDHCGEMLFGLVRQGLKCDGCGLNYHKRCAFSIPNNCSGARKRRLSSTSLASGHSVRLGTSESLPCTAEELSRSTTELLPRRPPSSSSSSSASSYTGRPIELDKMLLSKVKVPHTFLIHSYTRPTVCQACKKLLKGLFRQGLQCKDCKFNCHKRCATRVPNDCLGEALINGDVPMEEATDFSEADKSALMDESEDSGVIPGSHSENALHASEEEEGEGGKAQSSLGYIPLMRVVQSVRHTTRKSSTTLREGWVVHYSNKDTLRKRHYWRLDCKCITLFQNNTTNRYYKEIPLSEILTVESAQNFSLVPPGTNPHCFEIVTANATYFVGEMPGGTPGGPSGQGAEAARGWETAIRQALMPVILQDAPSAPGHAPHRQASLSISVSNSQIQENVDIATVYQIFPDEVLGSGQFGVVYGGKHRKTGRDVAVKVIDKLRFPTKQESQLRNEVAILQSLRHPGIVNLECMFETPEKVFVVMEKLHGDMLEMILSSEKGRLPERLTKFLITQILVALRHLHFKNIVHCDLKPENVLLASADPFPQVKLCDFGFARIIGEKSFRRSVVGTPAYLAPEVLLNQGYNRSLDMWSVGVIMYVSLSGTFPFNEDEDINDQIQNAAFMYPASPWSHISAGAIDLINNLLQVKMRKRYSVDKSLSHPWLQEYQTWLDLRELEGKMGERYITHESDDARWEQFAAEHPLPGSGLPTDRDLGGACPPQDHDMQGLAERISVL

[5] = target: CDC42BPG/DMPK2 (Homo sapiens, UniProt Q6DT37); details: cited from earlier work
[6] = target: CDC42BPB/MRCKB (Homo sapiens, UniProt Q9Y5S2); details: cited from earlier work
Sequence of CDC42BPB/MRCKB (Q9Y5S2 whole entry): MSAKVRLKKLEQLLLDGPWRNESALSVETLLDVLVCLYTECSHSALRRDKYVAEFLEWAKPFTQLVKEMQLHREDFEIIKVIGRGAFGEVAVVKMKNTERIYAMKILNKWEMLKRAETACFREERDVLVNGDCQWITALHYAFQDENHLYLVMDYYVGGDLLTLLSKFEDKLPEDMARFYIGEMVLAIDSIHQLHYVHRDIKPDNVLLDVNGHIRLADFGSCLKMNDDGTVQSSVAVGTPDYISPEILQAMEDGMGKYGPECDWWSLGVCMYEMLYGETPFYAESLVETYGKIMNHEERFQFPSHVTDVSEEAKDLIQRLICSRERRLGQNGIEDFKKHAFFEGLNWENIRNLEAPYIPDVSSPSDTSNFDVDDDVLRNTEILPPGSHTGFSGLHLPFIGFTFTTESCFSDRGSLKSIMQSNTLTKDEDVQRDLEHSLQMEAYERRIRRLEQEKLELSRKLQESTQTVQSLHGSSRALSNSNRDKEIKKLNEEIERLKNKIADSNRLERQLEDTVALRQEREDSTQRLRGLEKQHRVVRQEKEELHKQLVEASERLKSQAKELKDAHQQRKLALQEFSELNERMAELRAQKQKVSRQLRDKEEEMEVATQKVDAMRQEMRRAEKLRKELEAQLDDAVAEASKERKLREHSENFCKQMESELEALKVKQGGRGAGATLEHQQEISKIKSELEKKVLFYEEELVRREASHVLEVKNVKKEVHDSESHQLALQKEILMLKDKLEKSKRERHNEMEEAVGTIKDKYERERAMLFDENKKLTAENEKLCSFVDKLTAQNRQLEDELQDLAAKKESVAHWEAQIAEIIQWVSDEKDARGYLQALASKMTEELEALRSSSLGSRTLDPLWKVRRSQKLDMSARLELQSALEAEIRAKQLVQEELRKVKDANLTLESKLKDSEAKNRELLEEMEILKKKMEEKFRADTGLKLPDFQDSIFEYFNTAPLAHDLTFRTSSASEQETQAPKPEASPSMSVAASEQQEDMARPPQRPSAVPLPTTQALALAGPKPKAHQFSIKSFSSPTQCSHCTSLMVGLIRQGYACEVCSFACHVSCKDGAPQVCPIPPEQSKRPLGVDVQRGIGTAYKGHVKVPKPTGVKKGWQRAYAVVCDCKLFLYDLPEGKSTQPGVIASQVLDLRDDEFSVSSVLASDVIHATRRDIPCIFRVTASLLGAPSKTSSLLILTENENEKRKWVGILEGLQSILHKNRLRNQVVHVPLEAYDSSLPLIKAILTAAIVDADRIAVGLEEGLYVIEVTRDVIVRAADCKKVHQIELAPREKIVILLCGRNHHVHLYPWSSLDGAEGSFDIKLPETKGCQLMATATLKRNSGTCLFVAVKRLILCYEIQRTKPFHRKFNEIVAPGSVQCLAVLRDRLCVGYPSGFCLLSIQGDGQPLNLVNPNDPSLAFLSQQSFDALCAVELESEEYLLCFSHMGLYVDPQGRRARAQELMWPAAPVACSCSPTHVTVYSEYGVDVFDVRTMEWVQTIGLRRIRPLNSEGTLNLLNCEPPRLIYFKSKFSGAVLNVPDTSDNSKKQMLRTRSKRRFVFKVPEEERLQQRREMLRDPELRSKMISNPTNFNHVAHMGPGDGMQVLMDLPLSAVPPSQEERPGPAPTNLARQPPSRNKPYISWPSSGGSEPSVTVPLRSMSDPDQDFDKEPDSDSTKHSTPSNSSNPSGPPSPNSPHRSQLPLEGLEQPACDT

[7] = target: CIT (Homo sapiens, UniProt O14578); details: cited from earlier work
[8] = target: TGFBR2 (Homo sapiens, UniProt P37173); details: cited from earlier work
Sequence of TGFBR2 (P37173 23-567): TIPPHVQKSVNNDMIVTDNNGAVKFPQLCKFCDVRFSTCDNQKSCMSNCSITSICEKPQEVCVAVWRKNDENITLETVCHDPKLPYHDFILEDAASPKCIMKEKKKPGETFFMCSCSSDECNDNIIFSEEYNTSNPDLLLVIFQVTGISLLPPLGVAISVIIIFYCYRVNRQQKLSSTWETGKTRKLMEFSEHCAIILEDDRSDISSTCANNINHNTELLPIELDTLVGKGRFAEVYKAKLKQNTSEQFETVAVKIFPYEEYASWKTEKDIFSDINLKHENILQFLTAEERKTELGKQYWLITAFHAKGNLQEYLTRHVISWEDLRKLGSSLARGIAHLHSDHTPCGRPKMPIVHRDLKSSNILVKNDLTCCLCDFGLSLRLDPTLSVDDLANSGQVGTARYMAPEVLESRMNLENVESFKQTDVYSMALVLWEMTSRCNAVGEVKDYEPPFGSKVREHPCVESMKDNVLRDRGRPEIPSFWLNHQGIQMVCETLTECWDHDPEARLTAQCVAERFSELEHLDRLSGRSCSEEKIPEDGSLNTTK

[9] = target: CSNK1E (Homo sapiens, UniProt P49674); details: cited from earlier work
[10] = target: T2, PRKD3 (Homo sapiens, UniProt O94806); details: cited from earlier work
T2 sequence (O94806 1-890): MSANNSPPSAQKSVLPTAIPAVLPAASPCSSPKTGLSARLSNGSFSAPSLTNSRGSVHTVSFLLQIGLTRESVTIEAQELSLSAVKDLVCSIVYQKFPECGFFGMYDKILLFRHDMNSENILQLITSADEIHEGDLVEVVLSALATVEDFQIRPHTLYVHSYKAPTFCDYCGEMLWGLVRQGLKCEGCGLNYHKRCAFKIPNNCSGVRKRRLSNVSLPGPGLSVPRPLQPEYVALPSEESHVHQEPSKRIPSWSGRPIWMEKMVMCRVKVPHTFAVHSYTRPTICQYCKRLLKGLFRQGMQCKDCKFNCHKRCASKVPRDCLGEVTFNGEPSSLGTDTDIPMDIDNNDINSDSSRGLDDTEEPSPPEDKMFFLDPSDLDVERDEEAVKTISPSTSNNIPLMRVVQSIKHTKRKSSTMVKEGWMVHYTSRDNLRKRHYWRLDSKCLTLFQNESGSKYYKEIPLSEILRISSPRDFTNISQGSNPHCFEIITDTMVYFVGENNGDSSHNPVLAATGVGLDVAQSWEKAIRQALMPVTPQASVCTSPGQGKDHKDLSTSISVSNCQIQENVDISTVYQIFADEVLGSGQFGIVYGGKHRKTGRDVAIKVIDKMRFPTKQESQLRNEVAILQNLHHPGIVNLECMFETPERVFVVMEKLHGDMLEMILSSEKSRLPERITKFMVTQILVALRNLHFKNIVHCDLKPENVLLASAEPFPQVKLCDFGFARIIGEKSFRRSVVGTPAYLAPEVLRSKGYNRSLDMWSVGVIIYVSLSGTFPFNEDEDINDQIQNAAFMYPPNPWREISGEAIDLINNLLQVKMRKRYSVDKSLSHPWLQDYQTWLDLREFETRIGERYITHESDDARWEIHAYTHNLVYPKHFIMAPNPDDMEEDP

[11] = target: T3, JAK1(JH2) (Homo sapiens, UniProt P23458); details: cited from earlier work
T3 construct: JAK1(JH2)
T3 sequence (P23458 583-855 limits assumed): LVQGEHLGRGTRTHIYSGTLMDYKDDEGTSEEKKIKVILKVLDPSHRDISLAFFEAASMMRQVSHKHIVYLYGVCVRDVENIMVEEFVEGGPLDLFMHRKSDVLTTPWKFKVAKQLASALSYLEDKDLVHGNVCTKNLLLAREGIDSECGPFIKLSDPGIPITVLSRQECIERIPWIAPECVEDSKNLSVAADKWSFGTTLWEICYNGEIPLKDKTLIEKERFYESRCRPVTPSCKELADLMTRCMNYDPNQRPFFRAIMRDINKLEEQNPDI

[12] = target: PIKFYVE (Homo sapiens, UniProt Q9Y2I7); details: cited from earlier work
Sequence of PIKFYVE (Q9Y2I7 whole entry): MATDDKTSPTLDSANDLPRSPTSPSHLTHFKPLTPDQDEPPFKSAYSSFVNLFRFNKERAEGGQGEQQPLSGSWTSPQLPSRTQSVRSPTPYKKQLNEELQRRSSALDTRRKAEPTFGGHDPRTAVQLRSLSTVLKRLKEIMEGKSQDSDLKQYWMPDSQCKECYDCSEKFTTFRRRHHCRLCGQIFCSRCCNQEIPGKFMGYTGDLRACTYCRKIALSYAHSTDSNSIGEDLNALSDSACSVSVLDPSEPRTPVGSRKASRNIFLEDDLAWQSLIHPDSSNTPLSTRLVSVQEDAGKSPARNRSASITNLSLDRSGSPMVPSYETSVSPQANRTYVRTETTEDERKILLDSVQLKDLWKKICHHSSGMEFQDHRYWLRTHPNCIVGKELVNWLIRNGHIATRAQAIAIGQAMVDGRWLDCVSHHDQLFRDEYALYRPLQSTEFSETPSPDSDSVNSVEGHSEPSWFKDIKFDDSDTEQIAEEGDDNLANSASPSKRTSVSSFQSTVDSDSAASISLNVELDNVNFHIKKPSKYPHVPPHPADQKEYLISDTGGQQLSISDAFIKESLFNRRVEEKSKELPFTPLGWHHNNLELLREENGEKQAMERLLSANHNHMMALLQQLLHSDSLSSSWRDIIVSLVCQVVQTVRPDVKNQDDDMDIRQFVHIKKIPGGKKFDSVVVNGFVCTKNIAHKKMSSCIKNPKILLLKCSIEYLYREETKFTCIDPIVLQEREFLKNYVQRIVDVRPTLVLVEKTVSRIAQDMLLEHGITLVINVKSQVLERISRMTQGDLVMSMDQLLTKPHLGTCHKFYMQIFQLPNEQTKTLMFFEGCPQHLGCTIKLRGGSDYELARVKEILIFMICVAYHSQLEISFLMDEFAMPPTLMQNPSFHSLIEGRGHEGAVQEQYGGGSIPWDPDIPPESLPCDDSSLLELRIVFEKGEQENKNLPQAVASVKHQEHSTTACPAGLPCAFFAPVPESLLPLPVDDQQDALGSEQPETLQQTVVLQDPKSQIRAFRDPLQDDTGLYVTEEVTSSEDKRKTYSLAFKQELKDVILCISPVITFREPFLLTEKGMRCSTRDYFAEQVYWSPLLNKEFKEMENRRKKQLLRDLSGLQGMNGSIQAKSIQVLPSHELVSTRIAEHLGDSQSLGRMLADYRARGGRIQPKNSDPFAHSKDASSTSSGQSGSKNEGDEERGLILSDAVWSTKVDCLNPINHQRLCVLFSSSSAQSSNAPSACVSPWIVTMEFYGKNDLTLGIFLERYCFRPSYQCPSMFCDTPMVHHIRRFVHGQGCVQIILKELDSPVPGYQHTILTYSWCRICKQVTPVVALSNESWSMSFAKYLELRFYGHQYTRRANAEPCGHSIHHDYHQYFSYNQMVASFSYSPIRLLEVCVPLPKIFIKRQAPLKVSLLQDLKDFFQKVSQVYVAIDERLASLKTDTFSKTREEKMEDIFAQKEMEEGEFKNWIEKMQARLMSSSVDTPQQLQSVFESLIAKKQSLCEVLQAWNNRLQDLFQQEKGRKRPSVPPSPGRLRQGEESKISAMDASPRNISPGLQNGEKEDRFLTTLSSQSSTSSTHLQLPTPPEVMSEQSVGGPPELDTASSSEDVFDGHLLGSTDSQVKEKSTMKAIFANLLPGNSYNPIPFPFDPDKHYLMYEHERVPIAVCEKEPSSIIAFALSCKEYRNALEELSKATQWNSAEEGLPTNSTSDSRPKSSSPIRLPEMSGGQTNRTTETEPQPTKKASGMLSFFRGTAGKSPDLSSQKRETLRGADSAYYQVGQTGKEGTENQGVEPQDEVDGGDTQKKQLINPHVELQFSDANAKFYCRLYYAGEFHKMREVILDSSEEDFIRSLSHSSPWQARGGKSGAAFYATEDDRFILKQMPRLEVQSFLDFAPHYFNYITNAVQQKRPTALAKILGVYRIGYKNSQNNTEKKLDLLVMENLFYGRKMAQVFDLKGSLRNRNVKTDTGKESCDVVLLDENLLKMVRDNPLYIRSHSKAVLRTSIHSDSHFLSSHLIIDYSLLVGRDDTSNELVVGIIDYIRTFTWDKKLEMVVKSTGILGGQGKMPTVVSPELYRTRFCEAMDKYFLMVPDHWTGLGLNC

[13] = target: BMPR1B (Homo sapiens, UniProt O00238); details: cited from earlier work
Sequence of BMPR1B (O00238 14-502): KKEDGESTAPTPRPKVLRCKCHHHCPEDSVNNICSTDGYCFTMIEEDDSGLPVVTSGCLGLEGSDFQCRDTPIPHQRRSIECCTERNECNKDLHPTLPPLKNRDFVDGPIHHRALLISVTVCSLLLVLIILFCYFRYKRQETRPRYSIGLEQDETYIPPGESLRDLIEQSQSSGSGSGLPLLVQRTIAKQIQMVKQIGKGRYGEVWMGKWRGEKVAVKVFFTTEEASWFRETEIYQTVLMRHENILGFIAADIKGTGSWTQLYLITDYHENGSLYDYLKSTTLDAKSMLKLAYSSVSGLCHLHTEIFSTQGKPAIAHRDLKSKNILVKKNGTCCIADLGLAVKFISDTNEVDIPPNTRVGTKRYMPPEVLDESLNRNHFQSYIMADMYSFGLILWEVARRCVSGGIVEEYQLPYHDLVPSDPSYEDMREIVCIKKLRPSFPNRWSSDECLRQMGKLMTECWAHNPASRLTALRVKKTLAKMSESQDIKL

[14] = target: MTOR (Homo sapiens, UniProt P42345); details: cited from earlier work
[15] = system: SH-SY5Y cells; assay: AK (adenylate kinase) release ToxiLight cytotoxicity assay; details: PKIS2 primary screening; also: reference of the scale not given here
[16] = system: SH-SY5Y cells; assay: Nuclear count from microscopy images (cellular growth and toxicity); details: PKIS2 primary screening; also: reference of the scale not given here

Row | SMILES | TFEB % [1] | TFE3 % [2] | nTFE3 % [2] | DQ Intensity [3] | DQ Spot [3] | KINOMEscan binding PRKD2 [4] | KINOMEscan binding CDC42BPG/DMPK2 [5] | KINOMEscan binding CDC42BPB/MRCKB [6] | KINOMEscan binding CIT [7] | KINOMEscan binding TGFBR2 [8] | KINOMEscan binding CSNK1E [9] | KINOMEscan binding PRKD3 [10] | KINOMEscan binding JAK1(JH2) [11] | KINOMEscan binding PIKFYVE [12] | KINOMEscan binding BMPR1B [13] | KINOMEscan binding MTOR [14] | AK [15] | Nuclear Count [16]
1 | Cc1cccc(-c2cc(Nc3ccncc3)c3ccccc3n2)n1 [GSK223675] | 7.90% | 9.28% | 9.2% | 136.99 | 120.77 | 96% | 7% | 0% | 23% | 0% | 50% | 100% | 5% | 23% | 0% | 7% | 117.83 | 85.07
2 | Cc1cccc(-c2nc(Nc3ccc4c(cnn4C)c3)c3ccccc3n2)n1 [GW876731] | 18.65% | 20.31% | 20.3% | 96.16 | 100.57 | 99.6% | 22% | 34% | 12% | 0% | 37% | 90.2% | 16% | 91.5% | 0% | 0% | 73.05 | 107.18
3 | Cc1cc(Nc2nc(-c3cccc(C)n3)nc3ccccc23)ccn1 [GW872411] | 5.91% | 20.21% | 20.2% | 103.32 | 114.14 | 99.9% | 2% | 0% | 0% | 0% | 31% | 76% | 81% | 53% | 0% | 73% | 69.93 | 94.17
4 | Clc1cccc(-c2nc(Nc3ccncc3)c3ccccc3n2)c1 [GW873004] | 4.68% | 19.51% | 19.5% | 102.26 | 118.51 | 45% | 84% | 42% | 57% | 17% | 23% | 44% | 16% | 61% | 4% | 36% | 129.21 | 66.61
5 | Cc1cccc(-c2nc(Nc3ccc4nn[nH]c4c3)c3ccccc3n2)n1 [GW867587] | 14.22% | 12.03% | 12% | 114.16 | 102.41 | 98.1% | 0% | 2% | 15% | 0% | 0% | 66% | 52% | 13% | 0% | 5% | 54.27 | 123.89
6 | Cc1cccc(-c2nc(Nc3ccc4ncsc4c3)c3ccccc3n2)n1 [GW867588] | 27.23% | 18.78% | 18.7% | 95.27 | 103.18 | 99.8% | 9% | 33% | 13% | 0% | 6% | 66% | 62% | 54% | 0% | 0% | 60.47 | 62.46
